Article PMC5218480 (PLoS ONE, 2017)

System: MV-4-11 cells
Experiment: Gene expression microarray analysis (Affymetrix PrimeView) and GSEA
Assay type: cell-based, human
Set-up: RFU PODN (11730768_x_at) / Fold change /veh PODN (11730768_x_at) / RFU LINC00158 (11744669_a_at) / Fold change /veh LINC00158 (11744669_a_at) / RFU DUSP10 (11751237_a_at) / Fold change /veh DUSP10 (11751237_a_at) / RFU ID3 (11757404_x_at) / Fold change /veh ID3 (11757404_x_at) / RFU PLEKHG5 (11737974_s_at) / Fold change /veh PLEKHG5 (11737974_s_at) / RFU LRRC4B (11730491_at) / Fold change /veh LRRC4B (11730491_at) / RFU GIMAP4 (11747438_a_at) / Fold change /veh GIMAP4 (11747438_a_at) / RFU KRT8 (11758183_x_at) / Fold change /veh KRT8 (11758183_x_at) / RFU CNN1 (11734310_a_at) / Fold change /veh CNN1 (11734310_a_at) / RFU VPS37D (11726825_at) / Fold change /veh VPS37D (11726825_at) / RFU C10orf10 (11716522_x_at) / Fold change /veh C10orf10 (11716522_x_at) / RFU KIR2DL2 /// KIR2DL4 /// KIR2DL5A /// KIR2DL5B /// KIR2DS1 /// KIR2DS2 /// KIR2DS3 /// KIR2DS4 /// KIR3DL3 /// KIR3DL3 /// KIR3DS1 (11738374_at) / Fold change /veh KIR2DL2 /// KIR2DL4 /// KIR2DL5A /// KIR2DL5B /// KIR2DS1 /// KIR2DS2 /// KIR2DS3 /// KIR2DS4 /// KIR3DL3 /// KIR3DL3 /// KIR3DS1 (11738374_at) / RFU C1QL1 (11718748_at) / Fold change /veh C1QL1 (11718748_at) / RFU TMPRSS4 (11747572_a_at) / Fold change /veh TMPRSS4 (11747572_a_at) / RFU HAMP (11756126_x_at) / Fold change /veh HAMP (11756126_x_at) / RFU RNFT2 (11725882_a_at) / Fold change /veh RNFT2 (11725882_a_at) / RFU NR4A2 (11747474_a_at) / Fold change /veh NR4A2 (11747474_a_at) / RFU ABCC12 (11746883_a_at) / Fold change /veh ABCC12 (11746883_a_at) / RFU TMEM136 (11760407_x_at) / Fold change /veh TMEM136 (11760407_x_at) / RFU CLDN22 /// WWC2 (11732394_at) / Fold change /veh CLDN22 /// WWC2 (11732394_at) / RFU HLA-DPB1 (11760878_x_at) / Fold change /veh HLA-DPB1 (11760878_x_at) / RFU SPINT1 (11716480_a_at) / Fold change /veh SPINT1 (11716480_a_at) / RFU GAP43 (11754022_s_at) / Fold change /veh GAP43 (11754022_s_at) / RFU A4GNT (11735810_at) / Fold change /veh A4GNT (11735810_at) / RFU PRB3 (11715151_x_at) / Fold change /veh PRB3 (11715151_x_at) / RFU TUBB4B (11761932_at) / Fold change /veh TUBB4B (11761932_at) / RFU CAPN14 (11732068_a_at) / Fold change /veh CAPN14 (11732068_a_at) / RFU TMCC2 (11721928_a_at) / Fold change /veh TMCC2 (11721928_a_at) / RFU IRGQ (11745062_a_at) / Fold change /veh IRGQ (11745062_a_at) / RFU FAM174B (11720279_a_at) / Fold change /veh FAM174B (11720279_a_at) / RFU TMPRSS4 (11748680_a_at) / Fold change /veh TMPRSS4 (11748680_a_at) / RFU FAM212B (11763350_a_at) / Fold change /veh FAM212B (11763350_a_at) / RFU PLEKHG5 (11743358_a_at) / Fold change /veh PLEKHG5 (11743358_a_at) / RFU ZSCAN30 (11745921_a_at) / Fold change /veh ZSCAN30 (11745921_a_at) / RFU CMKLR1 (11741424_a_at) / Fold change /veh CMKLR1 (11741424_a_at) / RFU LOC101060620 /// MAPK8IP1 (11723275_at) / Fold change /veh LOC101060620 /// MAPK8IP1 (11723275_at) / RFU SPTSSB (11747773_x_at) / Fold change /veh SPTSSB (11747773_x_at) / RFU PRSS12 (11739890_at) / Fold change /veh PRSS12 (11739890_at) / RFU BIN1 (11741810_x_at) / Fold change /veh BIN1 (11741810_x_at) / RFU WNT11 (11732464_a_at) / Fold change /veh WNT11 (11732464_a_at) / RFU C10orf10 (11716521_a_at) / Fold change /veh C10orf10 (11716521_a_at) / RFU C5orf56 (11738089_at) / Fold change /veh C5orf56 (11738089_at) / RFU CYB561 (11721691_x_at) / Fold change /veh CYB561 (11721691_x_at) / RFU ANKRD19P (11752326_a_at) / Fold change /veh ANKRD19P (11752326_a_at) / RFU OR2T12 /// OR2T33 /// OR2T8 (11738714_s_at) / Fold change /veh OR2T12 /// OR2T33 /// OR2T8 (11738714_s_at) / RFU VCAN (11748164_a_at) / Fold change /veh VCAN (11748164_a_at) / RFU JSRP1 (11732532_at) / Fold change /veh JSRP1 (11732532_at) / RFU KRTAP10-11 (11738290_x_at) / Fold change /veh KRTAP10-11 (11738290_x_at) / RFU MYO3A (11730013_a_at) / Fold change /veh MYO3A (11730013_a_at) / RFU EBF3 (11725865_a_at) / Fold change /veh EBF3 (11725865_a_at) / RFU CAMK2N1 (11719241_x_at) / Fold change /veh CAMK2N1 (11719241_x_at) / RFU C5orf56 (11738088_a_at) / Fold change /veh C5orf56 (11738088_a_at) / RFU OLFML3 (11715873_a_at) / Fold change /veh OLFML3 (11715873_a_at) / RFU LOC100653217 /// NTM (11731650_a_at) / Fold change /veh LOC100653217 /// NTM (11731650_a_at) / RFU MAPK11 (11762145_a_at) / Fold change /veh MAPK11 (11762145_a_at) / RFU FIZ1 (11724087_x_at) / Fold change /veh FIZ1 (11724087_x_at) / RFU OASL (11726364_x_at) / Fold change /veh OASL (11726364_x_at) / RFU SOX15 (11748057_x_at) / Fold change /veh SOX15 (11748057_x_at) / RFU CD79A (11719716_a_at) / Fold change /veh CD79A (11719716_a_at) / RFU HIST1H1D (11736915_at) / Fold change /veh HIST1H1D (11736915_at) / RFU CASKIN2 (11723855_a_at) / Fold change /veh CASKIN2 (11723855_a_at) / RFU LOC730098 (11760151_x_at) / Fold change /veh LOC730098 (11760151_x_at) / RFU OR4N2 (11742367_at) / Fold change /veh OR4N2 (11742367_at) / RFU PRRT2 (11749266_a_at) / Fold change /veh PRRT2 (11749266_a_at) / RFU SNX32 (11753110_a_at) / Fold change /veh SNX32 (11753110_a_at) / RFU CDHR5 (11726645_a_at) / Fold change /veh CDHR5 (11726645_a_at) / RFU RCAN1 (11760418_a_at) / Fold change /veh RCAN1 (11760418_a_at) / RFU FAM167A (11723789_a_at) / Fold change /veh FAM167A (11723789_a_at) / RFU FAM26E (11764081_at) / Fold change /veh FAM26E (11764081_at) / RFU ISYNA1 (11749810_s_at) / Fold change /veh ISYNA1 (11749810_s_at) / RFU ACY1 (11761880_at) / Fold change /veh ACY1 (11761880_at) / RFU 11764098_at / Fold change /veh 11764098_at / RFU SAMD14 (11745864_x_at) / Fold change /veh SAMD14 (11745864_x_at) / RFU NPB (11741838_a_at) / Fold change /veh NPB (11741838_a_at) / RFU TMPRSS6 (11731388_a_at) / Fold change /veh TMPRSS6 (11731388_a_at) / RFU KRTAP10-2 (11738614_at) / Fold change /veh KRTAP10-2 (11738614_at) / RFU ARHGAP8 /// PRR5-ARHGAP8 (11727945_x_at) / Fold change /veh ARHGAP8 /// PRR5-ARHGAP8 (11727945_x_at) / RFU KRTAP5-7 /// NADSYN1 (11734609_at) / Fold change /veh KRTAP5-7 /// NADSYN1 (11734609_at) / RFU RASL12 (11751679_a_at) / Fold change /veh RASL12 (11751679_a_at) / RFU CDKN2B (11736163_a_at) / Fold change /veh CDKN2B (11736163_a_at) / RFU PRF1 (11729649_at) / Fold change /veh PRF1 (11729649_at) / RFU, ZNF638 /// ZNF638-IT1 / Fold change vs veh, ZNF638 /// ZNF638-IT1 / RFU, PANK3 / Fold change vs veh, PANK3 / RFU, SH3YL1 / Fold change vs veh, SH3YL1 / RFU, ZEB2 / Fold change vs veh, ZEB2 / RFU, NRIP1 / Fold change vs veh, NRIP1 / RFU, PTTG1IP / Fold change vs veh, PTTG1IP / RFU, CAPN2 / Fold change vs veh, CAPN2 / RFU, MED14 / Fold change vs veh, MED14 / RFU, SNORA58 / Fold change vs veh, SNORA58 / RFU, C1orf63 / Fold change vs veh, C1orf63 / RFU, LRRFIP1 / Fold change vs veh, LRRFIP1 / RFU, NDUFAF7 / Fold change vs veh, NDUFAF7 / RFU, SLC12A2 / Fold change vs veh, SLC12A2 / RFU, IBTK / Fold change vs veh, IBTK / RFU, ESF1 / Fold change vs veh, ESF1 / Fold change vs veh, TMEM50B / RFU, TAOK1 / Fold change vs veh, TAOK1 / RFU, ACBD3 / Fold change vs veh, ACBD3 / RFU, TMA16 / Fold change vs veh, TMA16 / RFU, RWDD3 / Fold change vs veh, RWDD3 / RFU, BCAT1 / Fold change vs veh, BCAT1 / RFU, EDEM3 / Fold change vs veh, EDEM3 / RFU, TMEM33 / Fold change vs veh, TMEM33 / RFU, WDR75 / Fold change vs veh, WDR75 / RFU, AHCTF1 / Fold change vs veh, AHCTF1 / RFU, TFRC / Fold change vs veh, TFRC / RFU, ZDHHC17 / Fold change vs veh, ZDHHC17 / RFU, NOM1 / Fold change vs veh, NOM1 / RFU, ARL8B / Fold change vs veh, ARL8B / RFU, ZBTB11 / Fold change vs veh, ZBTB11 / RFU, TAMM41 / Fold change vs veh, TAMM41 / RFU, KIAA1704 /// LOC100996395 / Fold change vs veh, KIAA1704 /// LOC100996395 / RFU, ING1 / Fold change vs veh, ING1 / RFU, TRMT61B / Fold change vs veh, TRMT61B / RFU, FUBP3 / Fold change vs veh, FUBP3 / RFU, TP53 / Fold change vs veh, TP53 / RFU, TNKS2 / Fold change vs veh, TNKS2 / RFU, ZFP14 / Fold change vs veh, ZFP14 / RFU, ACTR2 / Fold change vs veh, ACTR2 / RFU, PPP3R1 / Fold change vs veh, PPP3R1 / RFU, PIK3R1 / Fold change vs veh, PIK3R1 / RFU, HNRNPA1 / Fold change vs veh, HNRNPA1 / RFU, RNF170 / Fold change vs veh, RNF170 / RFU, ZNF28 / Fold change vs veh, ZNF28 / RFU, RNGTT / Fold change vs veh, RNGTT / RFU, OGT / Fold change vs veh, OGT / RFU, BRD1 / Fold change vs veh, BRD1 / RFU, MARS / Fold change vs veh, MARS / RFU, ZNF655 / Fold change vs veh, ZNF655 / RFU, FAHD1 / Fold change vs veh, FAHD1 / RFU, BDP1 / Fold change vs veh, BDP1 / RFU, LRRCC1 / Fold change vs veh, LRRCC1 / RFU, ARID1A / Fold change vs veh, ARID1A / RFU, ZNF146 / Fold change vs veh, ZNF146 / RFU, ZNF330 / Fold change vs veh, ZNF330 / RFU, GPN3 / Fold change vs veh, GPN3 / RFU, C9orf123 / Fold change vs veh, C9orf123 / RFU, N4BP2L2 / Fold change vs veh, N4BP2L2 / RFU, ARFIP1 / Fold change vs veh, ARFIP1 / RFU, FAM179B / Fold change vs veh, FAM179B / RFU, BCL10 / Fold change vs veh, BCL10 / RFU, UHRF1BP1L / Fold change vs veh, UHRF1BP1L / RFU, BET1 / Fold change vs veh, BET1 / RFU, CNOT2 / Fold change vs veh, CNOT2 / RFU, ZNF268 / Fold change vs veh, ZNF268 / Fold change vs veh, ZNF507 / RFU, DGCR2 / Fold change vs veh, DGCR2 / RFU, WDSUB1 / Fold change vs veh, WDSUB1 / Fold change vs veh, HSP90B1 /// MIR3652 / RFU, ADSS / Fold change vs veh, ADSS / RFU, GK / Fold change vs veh, GK / RFU, ZNF148 / Fold change vs veh, ZNF148 / RFU, TAF9 / Fold change vs veh, TAF9 / RFU, SLC1A5 / Fold change vs veh, SLC1A5 / RFU, SLMO2 / Fold change vs veh, SLMO2 / RFU, ABCC4 / Fold change vs veh, ABCC4 / RFU, LOC101060439 /// RAP1B / Fold change vs veh, LOC101060439 /// RAP1B / RFU, RFX7 / Fold change vs veh, RFX7 / RFU, GTPBP10 / Fold change vs veh, GTPBP10 / RFU, CNEP1R1 / Fold change vs veh, CNEP1R1 / RFU, BIVM-ERCC5 /// ERCC5 / Fold change vs veh, BIVM-ERCC5 /// ERCC5 / RFU, ILF3 / Fold change vs veh, ILF3 / RFU 11762660_at / Fold change /veh 11762660_at / RFU VCAN (11757783_s_at) / Fold change /veh VCAN (11757783_s_at) / RFU DDX43 (11728927_at) / Fold change /veh DDX43 (11728927_at) / RFU KRT8 (11758188_x_at) / Fold change /veh KRT8 (11758188_x_at) / RFU NKD1 (11759106_at) / Fold change /veh NKD1 (11759106_at) / RFU SRD5A1 (11742802_a_at) / Fold change /veh SRD5A1 (11742802_a_at) / RFU TPSAB1 /// TPSB2 (11721975_s_at) / Fold change /veh TPSAB1 /// TPSB2 (11721975_s_at) / RFU GSTM3 (11746129_a_at) / Fold change /veh GSTM3 (11746129_a_at) / RFU IL23R (11737362_x_at) / Fold change /veh IL23R (11737362_x_at) / RFU TMEM51 (11727254_a_at) / Fold change /veh TMEM51 (11727254_a_at) / RFU PIWIL2 (11732686_x_at) / Fold change /veh PIWIL2 (11732686_x_at) / RFU ORM1 (11744905_x_at) / Fold change /veh ORM1 (11744905_x_at) / RFU CCDC152 (11743942_at) / Fold change /veh CCDC152 (11743942_at) / RFU ECM1 (11717891_a_at) / Fold change /veh ECM1 (11717891_a_at) / RFU IL23R (11748794_a_at) / Fold change /veh IL23R (11748794_a_at) / RFU TNFAIP8L3 (11732012_x_at) / Fold change /veh TNFAIP8L3 (11732012_x_at) / RFU MBOAT4 (11741988_at) / Fold change /veh MBOAT4 (11741988_at) / RFU 11764193_at / Fold change /veh 11764193_at / RFU TMEM53 (11763286_at) / Fold change /veh TMEM53 (11763286_at) / RFU MAGEB2 (11727129_at) / Fold change /veh MAGEB2 (11727129_at) / RFU TMEM200A (11744735_a_at) / Fold change /veh TMEM200A (11744735_a_at) / RFU CCDC152 (11751479_a_at) / Fold change /veh CCDC152 (11751479_a_at) / RFU FAM211A (11726209_a_at) / Fold change /veh FAM211A (11726209_a_at) / RFU RGS16 (11746705_a_at) / Fold change /veh RGS16 (11746705_a_at) / RFU VCAN (11755009_s_at) / Fold change /veh VCAN (11755009_s_at) / RFU RHOB (11743442_s_at) / Fold change /veh RHOB (11743442_s_at) / RFU RGS16 (11720943_a_at) / Fold change /veh RGS16 (11720943_a_at) / RFU RGS16 (11720944_at) / Fold change /veh RGS16 (11720944_at) / RFU, VPS4B / Fold change vs veh, VPS4B / RFU, CREB1 / Fold change vs veh, CREB1 / RFU, DNAJC13 / Fold change vs veh, DNAJC13 / RFU, GNAQ / Fold change vs veh, GNAQ / RFU, CDK5R1 / Fold change vs veh, CDK5R1 / RFU, ZRANB3 / Fold change vs veh, ZRANB3 / RFU, CUL4A / Fold change vs veh, CUL4A / RFU, CCNY / Fold change vs veh, CCNY / RFU, UFL1 / Fold change vs veh, UFL1 / RFU, COG3 / Fold change vs veh, COG3 / RFU, DIAPH2 / Fold change vs veh, DIAPH2 / RFU, SKA2 / Fold change vs veh, SKA2 / RFU, AFF3 / Fold change vs veh, AFF3 / RFU, LMF1 / Fold change vs veh, LMF1 / RFU, IPO11 / Fold change vs veh, IPO11 / RFU, DFFB / Fold change vs veh, DFFB / RFU, FOXP1 / Fold change vs veh, FOXP1 / RFU, CARD8 / Fold change vs veh, CARD8 / RFU, STRN3 / Fold change vs veh, STRN3 / RFU, ADK / Fold change vs veh, ADK / RFU, RASSF2 / Fold change vs veh, RASSF2 / RFU, WIPF1 / Fold change vs veh, WIPF1 / RFU, LARP1B / Fold change vs veh, LARP1B / RFU, RASA1 / Fold change vs veh, RASA1 / RFU, RB1 / Fold change vs veh, RB1 / RFU, PPFIA1 / Fold change vs veh, PPFIA1 / RFU, MAT2A / Fold change vs veh, MAT2A / RFU, CCT5 / Fold change vs veh, CCT5 / RFU, WDR92 / Fold change vs veh, WDR92 / RFU, CUX1 / Fold change vs veh, CUX1 / RFU, TTC7A / Fold change vs veh, TTC7A / RFU, TMEM135 / Fold change vs veh, TMEM135 / RFU, DEPTOR / Fold change vs veh, DEPTOR / RFU, CPM / Fold change vs veh, CPM / RFU, DNAJB6 / Fold change vs veh, DNAJB6 / RFU, CACNA2D3 / Fold change vs veh, CACNA2D3 / RFU, DTX4 / Fold change vs veh, DTX4 / RFU, TFCP2 / Fold change vs veh, TFCP2 / RFU, GMCL1 /// GMCL1P1 / Fold change vs veh, GMCL1 /// GMCL1P1 / RFU, AEBP2 / Fold change vs veh, AEBP2 / RFU, SNHG1 /// SNORD22 /// SNORD25 /// SNORD26 /// SNORD27 /// SNORD28 /// SNORD29 /// SNORD31 / Fold change vs veh, SNHG1 /// SNORD22 /// SNORD25 /// SNORD26 /// SNORD27 /// SNORD28 /// SNORD29 /// SNORD31 / Fold change (Aza/veh), C12orf56 (ProbeSet 11735607_a_at) / Fold change (ACY-1035/veh), C12orf56 (ProbeSet 11735607_a_at) / Fold change (Aza/veh), FGFR1OP (ProbeSet 11751329_s_at) / Fold change (ACY-1035/veh), FGFR1OP (ProbeSet 11751329_s_at) / Fold change (Aza/veh), VPS36 (ProbeSet 11739960_a_at) / Fold change (ACY-1035/veh), VPS36 (ProbeSet 11739960_a_at) / RFU SYPL1 (11715823_x_at) / Fold change /veh SYPL1 (11715823_x_at) / RFU IGFBP7 (11715501_s_at) / Fold change /veh IGFBP7 (11715501_s_at) / RFU REEP3 (11722064_at) / Fold change /veh REEP3 (11722064_at) / RFU IGLL1 (11728026_x_at) / Fold change /veh IGLL1 (11728026_x_at): dose or concentration left out as unconfirmed
Conditions: ProbeSet 11749645_x_at; LIST B

SMILES: Nc1ccc(-c2cccs2)cc1NC(=O)c1ccc2c(c1)cc(C1CC1)n2CCN1CCOCC1 [ACY-1035]
- RFU, ZNF268: 141.54 RFU
